Experimental data reported in patent US5610320A, “Sulfonamide phenyl substituted compounds” (Eisai Co., Ltd., priority 1990, dated 1997).
In brackets after ≈: the same amount, converted by molar mass.

system: colon 38 (cancer of the colon of mice); assay: not given; assay type: in vivo, mice (BDF1, female); settings: 50 mg/kg/day oral, once a day for 8 days; 21 days after transplantation
Protocol: In vivo antineoplastic test on colon 38 (cancer of the colon of mice):
About 75 mg of colon 38 was subcutaneously transplanted in the side of the body of each of 7-week old female BDF1 mice. A compound of the present invention was suspended in 0.5% methylcellulose and oral administration of a predetermined amount of the suspension once a day was started on the next day and continued for 8 days. 0.5% methylcellulose was orally given to a control group. The control group consisted of 10 mice and the group to which the medicine was given consisted of 6 mice.
21 days after the transplantation, the tumors were taken out and weighed. The tumor growth inhibition ratio of the group to which the medicine was given to the control group was determined according to the following formula:
Growth inhibition ratio (%) (C-T)/C×100
T: average weight of tumor in the group to which the test compound was given
C: average weight of tumor in the control group

Structure (SMILES)	Growth inhibition ratio
COc1ccc(S(=O)(=O)Nc2cccnc2Nc2ccncc2)cc1 [Example 7, 4-Methoxy-N-[2-[(4-pyridyl)amino]-3-pyridyl]benzenesulfonamide]	61%
COc1ccc(S(=O)(=O)Nc2ccccc2NC(=O)c2cccnc2C)cc1 [Example 70, N-[2-(4-Methoxybenzenesulfonamido)phenyl]-2-methylnicotinamide]	63%

same assay, conditions: 100 mg/kg/day oral, once a day for 8 days; 21 days after transplantation

Structure (SMILES)	Growth inhibition ratio
Cc1ccc(S(=O)(=O)Nc2cccnc2Nc2ccccc2)cc1 [Example 1, N-(2-Anilino-3-pyridyl)-p-toluenesulfonamide]	80%
CCc1ccc(S(=O)(=O)Nc2cccnc2Nc2ccccc2)cc1 [Example 2, N-(2-Anilino-3-pyridyl)-4-ethylbenzenesulfonamide]	69%
COc1ccc(S(=O)(=O)Nc2cccnc2Nc2ccccc2)cc1 [Example 3, N-(2-Anilino-3-pyridyl)-4-methoxybenzenesulfonamide]	98%
COc1ccc(Nc2ncccc2NS(=O)(=O)c2ccc(OC)cc2)cc1 [Example 4, 4-Methoxy-N-[2-[(4-methoxyphenyl)amino]-3-pyridyl]benzenesulfonamide]	99%
COc1ccc(S(=O)(=O)Nc2cccnc2Nc2ccc(O)cc2)cc1 [Example 6, N-[2-[(4-Hydroxyphenyl)amino]-3-pyridyl]-4-methoxybenzenesulfonamide]	98%

system: BDF1 mice; assay: not given; set-up: species or system female); settings: mouse, in vivo, 1651 mg/kg
Protocol: EXPERIMENTAL EXAMPLE 3: Toxicity tests
No mouse died, even with 1651 mg/kg of the compound.

Structure (SMILES)	viability observed for 7 days after the administration
COc1ccc(S(=O)(=O)Nc2cccnc2Nc2ccccc2)cc1 [Example 3, N-(2-Anilino-3-pyridyl)-4-methoxybenzenesulfonamide]	No mouse died
COc1ccc(Nc2ncccc2NS(=O)(=O)c2ccc(OC)cc2)cc1 [Example 4, 4-Methoxy-N-[2-[(4-methoxyphenyl)amino]-3-pyridyl]benzenesulfonamide]	No mouse died
COc1ccc(S(=O)(=O)Nc2cccnc2Nc2ccc(O)cc2)cc1 [Example 6, N-[2-[(4-Hydroxyphenyl)amino]-3-pyridyl]-4-methoxybenzenesulfonamide]	No mouse died

system: KB cells (human nasopharyngeal cells); assay: In vitro antineoplastic test on KB cells (MTT, 3 days); assay type: cell-based; settings: 72 h, KB cells in vitro, 37° C. for three days, MTT, read-out: IC50
Protocol: In vitro antineoplastic test on KB cells (human nasopharyngeal cells):
1.25×10^3 (0.1 ml) of KB cells suspended in a RPMI 1640 medium (a product of Nissui Seiyaku Co., Ltd.) containing 20% of bovine fetus serum, penicillin (100 units/ml), streptomycin (100 μg/ml), mercaptoethanol (5×10^-5 M) and sodium pyruvate (1 mM) were placed in each hole of a 96-hole flat-bottom microplate and cultured in an incubator containing 5% of carbon dioxide at 37° C. for one day.
This concentration was the maximum one, which was subjected to two-fold serial dilution with 0.1% bovine fetus serum RPMI 1640 culture liquid containing 0.5% of dimethyl sulfoxide. It was added to the KB cells in each hole of the above-described culture plate in an amount of 0.1 ml and cultured in an incubator containing 5% of carbon dioxide at 37° C. for three days.
After the completion of the culture, 0.05 ml of MTT [3-(4,5-dimethylthiazol-2-yl)-2,5-diphenyltetrazolium bromide] solution (3.3 mg/ml) was added to each hole and the culture was conducted for an additional 1 h. The supernatant liquid was removed from each hole by suction and a formazan thus formed was dissolved in 0.1 ml of dimethyl sulfoxide. The absorbance at 540 nm was determined with a microplate reader to use as an index of a viable count. A percentage inhibition was calculated according to the following formula and the concentration of the test compound for 50% inhibition (IC50) was determined.
Percentage inhibition (%)=(C-T)/C×100
T: absorbance of the hole containing the test compound
C: absorbance of the hole containing no test compound

Structure (SMILES)	IC50
Cc1ccc(S(=O)(=O)Nc2cccnc2Nc2ccccc2)cc1 [Example 1, N-(2-Anilino-3-pyridyl)-p-toluenesulfonamide]	1.5 mg/L (≈ 4.42 µM)
CCc1ccc(S(=O)(=O)Nc2cccnc2Nc2ccccc2)cc1 [Example 2, N-(2-Anilino-3-pyridyl)-4-ethylbenzenesulfonamide]	1.7 mg/L (≈ 4.81 µM)
COc1ccc(S(=O)(=O)Nc2cccnc2Nc2ccccc2)cc1 [Example 3, N-(2-Anilino-3-pyridyl)-4-methoxybenzenesulfonamide]	0.27 mg/L (≈ 0.76 µM)
COc1ccc(Nc2ncccc2NS(=O)(=O)c2ccc(OC)cc2)cc1 [Example 4, 4-Methoxy-N-[2-[(4-methoxyphenyl)amino]-3-pyridyl]benzenesulfonamide]	1.9 mg/L (≈ 4.93 µM)
COc1ccc(S(=O)(=O)Nc2cccnc2Nc2ccc(O)cc2)cc1 [Example 6, N-[2-[(4-Hydroxyphenyl)amino]-3-pyridyl]-4-methoxybenzenesulfonamide]	0.42 mg/L (≈ 1.13 µM)
COc1ccc(S(=O)(=O)Nc2cccnc2Nc2ccncc2)cc1 [Example 7, 4-Methoxy-N-[2-[(4-pyridyl)amino]-3-pyridyl]benzenesulfonamide]	1 mg/L (≈ 2.81 µM)
COc1ccc(S(=O)(=O)Nc2ccccc2NC(=O)c2cccnc2C)cc1 [Example 70, N-[2-(4-Methoxybenzenesulfonamido)phenyl]-2-methylnicotinamide]	0.033 mg/L (≈ 0.083 µM)
COc1ccc(S(=O)(=O)Nc2ccccc2NC(=O)c2ccc(F)cc2)cc1 [Example 82, 4-Fluoro-N-[2-(4-methoxybenzenesulfonamido)phenyl]benzamide]	0.026 mg/L (≈ 0.0649 µM)
COc1ccc(S(=O)(=O)Nc2ccccc2NC(=O)c2ccco2)cc1 [Example 85, N-[2-(4-Methoxybenzenesulfonamido)phenyl]-2-furancarboxamide]	0.01 mg/L (≈ 0.0269 µM)
COc1ccc(S(=O)(=O)Nc2ccccc2NC(=O)c2ccncc2)cc1 [Example 88, N-[2-(4-Methoxybenzenesulfonamido)phenyl]isonicotinamide]	0.01 mg/L (≈ 0.0261 µM)

Further lines, results first:

IC50	Structure (SMILES)
0.079 mg/L (≈ 0.199 µM)	COc1ccc(S(=O)(=O)Nc2cccc(C)c2NC(=O)c2ccncc2)cc1 [Example 91, N-[2-(4-Methoxybenzenesulfonamido)-6-methylphenyl]isonicotinamide]
0.064 mg/L (≈ 0.147 µM)	COc1ccc(S(=O)(=O)Nc2ccccc2NC(=O)c2ccc(F)cc2Cl)cc1 [Example 94, 2-Chloro-4-fluoro-N-[2-(4-methoxybenzenesulfonamido)phenyl]benzamide]
0.045 mg/L (≈ 0.114 µM)	COc1ccc(S(=O)(=O)Nc2ccccc2NC(=O)c2ccccc2C)cc1 [Example 95, N-[2-(4-Methoxybenzenesulfonamido)phenyl]-2-methylbenzamide]
0.15 mg/L (≈ 0.36 µM)	COc1ccc(S(=O)(=O)Nc2ccccc2NC(=S)c2ccc(F)cc2)cc1 [Example 97, 4-Fluoro-N-[2-(4-methoxybenzenesulfonamido)phenyl]benzothioamide]
0.079 mg/L (≈ 0.197 µM)	COc1ccc(S(=O)(=O)Nc2ccc(F)cc2NC(=O)c2ccccc2)cc1 [Example 98, N-[5-fluoro-2-(4-methoxybenzenesulfonamido)phenyl]benzamide]
0.1 mg/L (≈ 0.312 µM)	COc1ccc(S(=O)(=O)Nc2ccccc2NC(C)=O)cc1 [Example 101, N-[2-(4-Methoxybenzenesulfonamido)phenyl]acetamide]
0.099 mg/L (≈ 0.283 µM)	CCNC(=O)Nc1ccccc1NS(=O)(=O)c1ccc(OC)cc1 [Example 104, N-[2-[(Ethylaminocarbonyl)amino]phenyl]-4-methoxybenzenesulfonamide]
0.3 mg/L (≈ 0.778 µM)	Nc1ccc(S(=O)(=O)Nc2ccccc2NC(=O)c2ccc(F)cc2)cc1 [Example 106, N-[2-(4-Aminobenzenesulfonamido)phenyl]-4-fluorobenzamide]
